# Reference: US20260293895A1, “HERBICIDAL DERIVATIVES” (SYNGENTA CROP PROTECTION AG, priority 2023, published 2026)
# Columns and labels:
# Format in all cases: in vivo
# [1] = test system: Amaranthus palmeri (AMAPA); test: Post-emergence herbicidal test, Amaranthus palmeri (AMAPA); conditions: 250 g/ha, sprayed after 8 days cultivation, evaluated after 13 days, glasshouse
# Method: (§1) Seeds of a variety of test species are sown in standard soil in pots (Setaria faberi (SETFA), Echinochloa crus-galli (ECHCG), Amaranthus palmeri (AMAPA), Zea mays (ZEAMX), Amaranthus retoflexus (AMARE),). After 8 days cultivation under controlled conditions in a glasshouse (at 24° C./16° C., day/night; 14 hours light; 65% humidity), the plants are sprayed with an aqueous spray solution derived from the formulation of the technical active ingredient in acetone/water (50:50) solution containing 0.5% Tween 20 (polyoxyethelyene sorbitan monolaurate, CAS RN 9005-64-5). Compounds are applied at 250 g/ha unless otherwise stated. The test plants are then grown in a glasshouse under controlled conditions in a glasshouse (at 24° C./16° C., day/night; 14 hours light; 65% humidity) and watered twice daily. After 13 days the test is evaluated for the percentage damage caused to the plant. The biological activities are shown in the following table on a five-point scale (5=81-100%; 4=61-80%; 3=41-60%; 2=21-40%; 1=1-20%; 0=no activity; -=not tested).
# [2] = test system: Amaranthus palmeri (AMAPA); test: Pre-emergence herbicidal test, Amaranthus palmeri (AMAPA); conditions: 250 g/ha, evaluated after 13 days, glasshouse
# [3] = test system: Amaranthus retoflexus (AMARE); test: Post-emergence herbicidal test, Amaranthus retoflexus (AMARE); conditions: 250 g/ha, sprayed after 8 days cultivation, evaluated after 13 days, glasshouse
# Method: as §1
# [4] = test system: Zea mays (ZEAMX); test: Pre-emergence test, Zea mays (ZEAMX); conditions: 250 g/ha, evaluated after 13 days, glasshouse, crop
# [5] = test system: Echinochloa crus-galli (ECHCG); test: Pre-emergence herbicidal test, Echinochloa crus-galli (ECHCG); conditions: 250 g/ha, evaluated after 13 days, glasshouse
# [6] = test system: Setaria faberi (SETFA); test: Pre-emergence herbicidal test, Setaria faberi (SETFA); conditions: 250 g/ha, evaluated after 13 days, glasshouse
# [7] = test system: Echinochloa crus-galli (ECHCG); test: Post-emergence herbicidal test, Echinochloa crus-galli (ECHCG); conditions: 250 g/ha, sprayed after 8 days cultivation, evaluated after 13 days, glasshouse
# Method: as §1
# [8] = test system: Amaranthus retoflexus (AMARE); test: Pre-emergence herbicidal test, Amaranthus retoflexus (AMARE); conditions: 250 g/ha, evaluated after 13 days, glasshouse
# [9] = test system: Setaria faberi (SETFA); test: Post-emergence herbicidal test, Setaria faberi (SETFA); conditions: 250 g/ha, sprayed after 8 days cultivation, evaluated after 13 days, glasshouse
# Method: as §1
# [10] = test system: Zea mays (ZEAMX); test: Post-emergence test, Zea mays (ZEAMX); set-up: key: 5: 81-100%; 4: 61-80%; 3: 41-60%; 21-40%; 1-20%; 0: no activity; -: not tested; conditions: 250 g/ha, sprayed after 8 days cultivation, evaluated after 13 days, glasshouse, crop
# Method: as §1
structure (smiles),measurement,setting,value
"CCn1c(Cl)cc(=O)c(C(=O)O)c1-c1ccc(Cl)c(Cl)c1 [Compound 2, 6-chloro-2-(3,4-dichlorophenyl)-1-ethyl-4-oxo-pyridine-3-carboxylic acid]","percentage damage caused to the plant, AMAPA",[1],1 (1-20%)
same,"percentage damage caused to the plant, AMAPA",[2],2 (21-40%)
same,"percentage damage caused to the plant, AMARE",[3],1 (1-20%)
same,"percentage damage caused to the plant, ZEAMX",[4],1 (1-20%)
same,"percentage damage caused to the plant, ECHCG",[5],3 (41-60%)
same,"percentage damage caused to the plant, SETFA",[6],5 (81-100%)
same,"percentage damage caused to the plant, ECHCG",[7],3 (41-60%)
same,"percentage damage caused to the plant, AMARE",[8],3 (41-60%)
same,"percentage damage caused to the plant, SETFA",[9],4 (61-80%)
same,"percentage damage caused to the plant, ZEAMX",[10],0
